Measurements as given in ChEMBL document CHEMBL3856182, “How much successful are the medicinal chemists in modulation of SIRT1: A critical review” (Eur J Med Chem, 2016).
≈ marks a conversion by molar mass, not a printed value. Each block holds one compound with its values, some of them ahead of it.

Tests used:
[1] = Oral bioavailability in rat at 50 or 150 mg/kg/day administered through gavage for 14 consecutive days by HPLC analysis; format: ADME, organism-based; details: in vivo
[2] = Drug absorption in human at 50 uCi, po up to 12 hrs using 14C-labeled compound by scintillation counting method; format: ADME, organism-based; details: in vivo
[3] = Oral bioavailability in human at 50 uCi up to 12 hrs using 14C-labeled compound by scintillation counting method; format: ADME, organism-based; details: in vivo
[4] = target: T1, NAD-dependent protein deacetylase sirtuin-2 (Homo sapiens, UniProt Q8IXJ6); test: Inhibition of recombinant human GST-tagged SIRT2 overexpressed in Escherichia coli DH5alpha assessed as deacetylation activity using [3H]-MPSDKTIGG as substrate measured after overnight incubation by liquid scintillation counting method
T1 sequence (Q8IXJ6 whole entry): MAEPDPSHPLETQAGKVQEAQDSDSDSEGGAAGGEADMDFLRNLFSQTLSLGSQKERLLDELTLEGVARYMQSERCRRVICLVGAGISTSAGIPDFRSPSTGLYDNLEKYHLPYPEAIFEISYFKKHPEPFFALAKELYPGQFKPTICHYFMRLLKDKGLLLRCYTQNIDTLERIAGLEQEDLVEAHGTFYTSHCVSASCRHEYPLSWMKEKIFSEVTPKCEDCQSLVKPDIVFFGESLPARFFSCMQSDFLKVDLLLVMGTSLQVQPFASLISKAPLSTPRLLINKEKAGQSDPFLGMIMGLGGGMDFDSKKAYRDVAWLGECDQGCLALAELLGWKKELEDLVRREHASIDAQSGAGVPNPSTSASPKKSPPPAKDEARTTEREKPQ

[5] = target: T2, NAD-dependent protein deacetylase sirtuin-1 (Homo sapiens, UniProt Q96EB6); test: Inhibition of recombinant human GST-tagged SIRT1 overexpressed in Escherichia coli DH5alpha assessed as deacetylation activity using [3H]-MPSDKTIGG as substrate measured after overnight incubation by liquid scintillation counting method
T2 sequence (Q96EB6 whole entry): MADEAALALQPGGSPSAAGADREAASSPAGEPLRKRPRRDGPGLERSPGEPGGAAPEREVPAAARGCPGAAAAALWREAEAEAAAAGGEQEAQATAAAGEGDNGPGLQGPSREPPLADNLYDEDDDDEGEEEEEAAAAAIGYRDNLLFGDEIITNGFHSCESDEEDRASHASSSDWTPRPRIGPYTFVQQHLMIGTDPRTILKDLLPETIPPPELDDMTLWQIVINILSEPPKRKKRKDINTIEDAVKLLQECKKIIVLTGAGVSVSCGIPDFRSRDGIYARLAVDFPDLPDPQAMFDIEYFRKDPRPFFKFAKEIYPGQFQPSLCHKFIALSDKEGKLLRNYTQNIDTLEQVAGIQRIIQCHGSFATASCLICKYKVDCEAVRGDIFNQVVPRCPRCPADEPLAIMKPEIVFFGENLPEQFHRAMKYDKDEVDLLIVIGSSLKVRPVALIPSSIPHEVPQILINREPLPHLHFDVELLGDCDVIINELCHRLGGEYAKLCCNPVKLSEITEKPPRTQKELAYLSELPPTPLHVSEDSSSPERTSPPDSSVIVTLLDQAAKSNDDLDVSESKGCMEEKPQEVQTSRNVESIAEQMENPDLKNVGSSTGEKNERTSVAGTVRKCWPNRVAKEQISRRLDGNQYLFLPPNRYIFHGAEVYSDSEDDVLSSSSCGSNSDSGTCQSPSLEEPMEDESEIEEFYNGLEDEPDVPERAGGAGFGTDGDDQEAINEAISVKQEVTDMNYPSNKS

[6] = target: T3, NAD-dependent protein deacetylase sirtuin-1 (Homo sapiens) (UniProt Q96EB6); test: Activation of recombinant human SIRT1 using TPE-GK(Ac)YDD as substrate at 1 to 50 uM by fluorescence assay relative to control
T3 sequence (whole entry): T2 sequence (Q96EB6 whole entry)

[7] = Cytotoxicity in HEK293 cells assessed as growth inhibition measured after 48 hrs by MTT assay; format: toxicity, cell-based; details: human
[8] = Cytotoxicity in human Caco2 cells assessed as growth inhibition measured after 48 hrs by MTT assay; format: functional; details: Caco-2, 48 h
[9] = Cytotoxicity in human LNCAP cells assessed as growth inhibition measured after 48 hrs by MTT assay; format: functional
[10] = Cytotoxicity in human MDA-MB-231 cells assessed as growth inhibition measured after 48 hrs by MTT assay; format: functional; details: MDA-MB-231, 48 h
[11] = target: T2, NAD-dependent protein deacetylase sirtuin-1; test: Inhibition of human SIRT1 assessed as deacetylation activity preincubated with protein followed by addition of AMC-tagged Arg-His-Lys-Lys(Ac) (379 to 382 residues) as substrate measured after 45 mins in presence of NAD+ by fluorescence assay
[12] = Cytotoxicity in human U937 cells assessed as growth inhibition measured after 48 hrs by MTT assay; format: functional; details: U-937, 48 h
Saccharomyces cerevisiae = test: Growth inhibition of yeast
[13] = target: T1, NAD-dependent protein deacetylase sirtuin-2; test: Inhibition of human SIRT2 using biotin labeled histone H4 peptide with an acetylated lysine 4 as substrate measured after 1 hr by luminescence analysis
[14] = target: T2, NAD-dependent protein deacetylase sirtuin-1; test: Inhibition of human SIRT1 using biotinylated peptide with an acetylated FLAG sequence as substrate measured after 3 hr in presence of NAD+ by TR-FRET assay
[15] = target: T1, NAD-dependent protein deacetylase sirtuin-2; test: Inhibition of full-length human N-terminal His6-tagged SIRT2 expressed in Escherichia coli BL21 (DE3) assessed as inhibition of deacetylase activity using ZMAL as substrate measured after 4 hrs by Fluor de Lys assay
[16] = target: T2, NAD-dependent protein deacetylase sirtuin-1; test: Inhibition of recombinant SIRT1 (unknown origin) assessed as deacetylation activity using acetylated p53 as substrate measured after 2 hrs by Fluor de Lys assay
[17] = target: T3, NAD-dependent protein deacetylase sirtuin-1 (Homo sapiens); test: Activation of recombinant human SIRT1 using TPE-GK(Ac)YDD as substrate at 50 uM by fluorescence assay relative to control
[18] = target: T2, NAD-dependent protein deacetylase sirtuin-1; test: Activation of recombinant human SIRT1 assessed as increase in deacetylation of Fluor de Lys-SIRT1-specific substrate after 2 hrs by HTS assay
[19] = target: T2, NAD-dependent protein deacetylase sirtuin-1; test: Inhibition of full-length human N-terminal GST-tagged SIRT1 expressed in Escherichia coli BL21 (DE3) assessed as inhibition of deacetylase activity using ZMAL as substrate measured after 4 hrs by Fluor de Lys assay
[20] = target: T2, NAD-dependent protein deacetylase sirtuin-1; test: Inhibition of recombinant human SIRT1 assessed as deacetylation activity using fluorescent substrate in presence of NAD+ by fluorescence analysis
[21] = target: T1, NAD-dependent protein deacetylase sirtuin-2; test: Inhibition of recombinant human SIRT2 assessed as deacetylation activity using fluorescent substrate in presence of NAD+ by fluorescence analysis
[22] = target: T1, NAD-dependent protein deacetylase sirtuin-2; test: Noncompetitive inhibition of human SIRT2 assessed as deacetylation activity using fluorescent substrate in presence of NAD+ by Lineweaver-Burk plot analysis
[23] = target: T1, NAD-dependent protein deacetylase sirtuin-2; test: Competitive inhibition of human SIRT2 assessed as deacetylation activity using fluorescent peptide substrate in presence of NAD+ by Lineweaver-Burk plot analysis
[24] = Cytotoxicity against human kidney cancer cells; format: functional; details: Cancer cell lines
[25] = Cytotoxicity against human prostate cancer cells; format: functional; details: Cancer cell lines
[26] = Cytotoxicity against human leukemia cells; format: functional; details: Leukemia cell
[27] = Cytotoxicity against human breast cancer cells; format: functional; details: Cancer cell lines
[28] = Cytotoxicity against human colon cancer cells; format: functional; details: Cancer cell lines
[29] = Cytotoxicity against human lung cancer cells; format: functional; details: Cancer cell lines

Structure (SMILES): Oc1ccc(/C=C/c2cc(O)cc(O)c2)cc1 [RESVERATROL]
bioavailability [1]: 20%
Fabs [2]: 70%
F [3]: 0.5%

Structure (SMILES): CC(C)=CCC[C@]1(C)[C@@H](CC=C(C)C)C[C@]2(CC=C(C)C)C(=O)C(CC=C(C)C)=C(O)[C@@]1(C(=O)C(C)C)C2=O
IC50 [4]: 28 µM
IC50 [5]: 15 µM

Structure (SMILES): CC(C)=CCC[C@](C)(O[C@@H]1O[C@H](CO[C@@H]2OC[C@H](O)[C@H](O)[C@H]2O)[C@@H](O)[C@H](O)[C@H]1O)[C@H]1CC[C@]2(C)[C@@H]1[C@H](O)C[C@@H]1[C@@]3(C)CC[C@H](O[C@@H]4O[C@H](CO)[C@@H](O)[C@H](O)[C@H]4O[C@@H]4O[C@H](CO)[C@@H](O)[C@H](O)[C@H]4O)C(C)(C)[C@@H]3CC[C@]12C
Activity [6]: 8 to 152%

Structure (SMILES): CN(C)CCCCC(=O)Nc1ccc(NC(=S)NC(=O)c2ccc(C(C)(C)C)cc2)cc1
IC50 (Saccharomyces cerevisiae): 30 µM

Structure (SMILES): Cn1ncnc2c(=O)n(C)c(=O)nc1-2
IC50 [13]: 14.4 µM
IC50 [14]: 0.87 µM

Structure (SMILES): CC1=CCC(C(=O)/N=C2\CC=C(S(=O)(=O)O)c3cc(S(=O)(=O)O)cc(S(=O)(=O)O)c32)=C/C1=N/C(=O)C1=CC=C/C(=N\C(=O)/N=C2\C=CC=C(C(=O)/N=C3/CC(C(=O)/N=C4\CC=C(S(=O)(=O)O)c5cc(S(=O)(=O)O)cc(S(=O)(=O)O)c54)=CC=C3C)C2)C1
IC50 [15]: 1.15 µM

Structure (SMILES): CC(C)=CCC[C@](C)(O[C@@H]1O[C@H](CO[C@@H]2O[C@@H](CO)[C@H](O)[C@H]2O)[C@@H](O)[C@H](O)[C@H]1O)[C@H]1CC[C@]2(C)[C@@H]1[C@H](O)C[C@@H]1[C@@]3(C)CC[C@H](O[C@@H]4O[C@H](CO)[C@@H](O)[C@H](O)[C@H]4O[C@@H]4O[C@H](CO)[C@@H](O)[C@H](O)[C@H]4O)C(C)(C)[C@@H]3CC[C@]12C
Activity [17]: 88%

Structure (SMILES): O=C(/C=C/c1ccc(O)c(O)c1)NC(Cc1c[nH]c2ccccc12)C(=O)O (stereo not given)
IC50 [20]: 34 µM
IC50 [21]: 8.7 µM
Ki [22]: 9.8 µM
Ki [23]: 5.3 µM

Structure (SMILES): COc1ccc2c3c(c4cc(OC)c(OC)cc4c2c1)CN1CCCC[C@@H]1C3
GI50 [24]: 0.0002 to 0.1 µg/mL (≈ 0.00053 to 0.265 µM)
GI50 [25]: 0.0002 to 0.1 µg/mL (≈ 0.00053 to 0.265 µM)
GI50 [26]: 0.0002 to 0.1 µg/mL (≈ 0.00053 to 0.265 µM)
GI50 [27]: 0.0002 to 0.1 µg/mL (≈ 0.00053 to 0.265 µM)
GI50 [28]: 0.0002 to 0.1 µg/mL (≈ 0.00053 to 0.265 µM)
GI50 [29]: 0.0002 to 0.1 µg/mL (≈ 0.00053 to 0.265 µM)

More lines, main results first:

IC50 [11]: 16.4 µM
Structure (SMILES): N#CC1=C(N)NC(SCC(=O)c2ccc(O)c(O)c2)=C(C#N)C1=C1C=CC(=O)C=C1
GI50 at 48 h [7]: < 1 µM
GI50 [8]: < 1 µM
GI50 [9]: < 1 µM
GI50 [10]: < 1 µM
GI50 [12]: < 1 µM

IC50 [16]: 0.149 µM
Structure (SMILES): CN(C)/C=N/C(=O)C1CCCc2c1[nH]c1ccc(Cl)cc21 (stereo not given)

IC50 [11]: 32 µM
Structure (SMILES): Oc1ccccc1-c1nc2ccc(Cl)cn2c1NCc1ccc2c(c1)OCO2
GI50 at 48 h [7]: < 1 µM
GI50 [8]: < 1 µM
GI50 [9]: < 1 µM
GI50 [10]: < 1 µM
GI50 [12]: < 1 µM

EC50 [18]: < 1 µM
Structure (SMILES): Nc1c(S(=O)(=O)c2ccccc2)c2nc3ccccc3nc2n1-c1ccc(F)cc1

Activity [17]: 28%
Structure (SMILES): CC(C)=CCC[C@](C)(O[C@@H]1O[C@H](CO)[C@@H](O)[C@H](O)[C@H]1O)[C@H]1CC[C@]2(C)[C@@H]1[C@H](O)C[C@@H]1[C@@]3(C)CC[C@H](O)C(C)(C)[C@@H]3[C@@H](O)C[C@]12C

IC50 [4]: 21 µM
IC50 [5]: 7 µM
Structure (SMILES): CC(C)=CCC[C@]1(C)[C@@H](CC=C(C)C)C[C@@]2(CC=C(C)C)C(=O)[C@]1(C(=O)C(C)C)C(=O)C(CC=C(C)C)=C2OCC(=O)O

IC50 [19]: 0.093 µM
IC50 [15]: 2.26 µM
Structure (SMILES): Nc1cc(NC(=O)Nc2cccc(C(=O)Nc3cccc(C(=O)Nc4ccc(S(=O)(=O)O)c5cc(S(=O)(=O)O)cc(S(=O)(=O)O)c45)c3)c2)cc(C(=O)Nc2cccc(C(=O)Nc3ccc(S(=O)(=O)O)c4cc(S(=O)(=O)O)cc(S(=O)(=O)O)c34)c2)c1
